Reference: PubChem BioAssay (NCI)
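Method: 48-hour compound exposure of cells in 96-well plates, five concentrations, linear interpolation of endpoints. GI50: concentration for 50% inhibition of growth. TGI: concentration producing complete growth inhibition.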

Experiments:
Experiment in all cases: inhibition of tumour cell growth, NCI panel, 48 h; in the data active = GI50 below about 0.43 µM; inactive = the rest
A498 renal = test system: A498 renal
RPMI-8226 leukemia = test system: RPMI-8226 leukemia
UO-31 renal = test system: UO-31 renal
HOP-62 NSCLC = test system: HOP-62 NSCLC
LOX IMVI melanoma = test system: LOX IMVI melanoma
SF-539 CNS = test system: SF-539 CNS
K-562 leukemia = test system: K-562 leukemia
NCI-H226 lung = test system: NCI-H226 lung
A549 NSCLC = test system: A549 NSCLC
OVCAR-4 ovarian = test system: OVCAR-4 ovarian
PC-3 prostate = test system: PC-3 prostate
NCI/ADR-RES ovarian = test system: NCI/ADR-RES ovarian

CC1CN=C(NCc2ccccc2)S1 (stereo not given)
> 100 µM: TGI (A498 renal) | TGI (RPMI-8226 leukemia) | TGI (UO-31 renal) | TGI (HOP-62 NSCLC) | TGI (LOX IMVI melanoma) | TGI (SF-539 CNS) | TGI (K-562 leukemia) | TGI (NCI-H226 lung)

C1=CCN(c2ccccc2)CC1
> 100 µM: TGI (A498 renal) | TGI (RPMI-8226 leukemia) | TGI (A549 NSCLC) | TGI (UO-31 renal) | TGI (LOX IMVI melanoma) | TGI (SF-539 CNS) | TGI (K-562 leukemia)

Cc1nc2ccccc2nc1NS(=O)(=O)c1ccc(N)cc1
> 100 µM: TGI (A498 renal) | TGI (RPMI-8226 leukemia) | TGI (A549 NSCLC) | TGI (UO-31 renal) | TGI (HOP-62 NSCLC) | TGI (LOX IMVI melanoma) | TGI (SF-539 CNS) | TGI (OVCAR-4 ovarian) | TGI (K-562 leukemia) | TGI (NCI-H226 lung)

O=C(CCN(CCO)CCO)Nc1ccc2c(c1)C(=O)c1ccc(NC(=O)CCN(CCO)CCO)cc1C2=O
22.3 µM: TGI (SF-539 CNS)
74.4 µM: TGI (K-562 leukemia)
56.5 µM: TGI (LOX IMVI melanoma)
98.3 µM: TGI (HOP-62 NSCLC)
22.1 µM: TGI (UO-31 renal)
44.2 µM: TGI (NCI-H226 lung)
> 100 µM: TGI (RPMI-8226 leukemia) | TGI (A549 NSCLC) | TGI (OVCAR-4 ovarian)
37.9 µM: TGI (A498 renal)

CN(C)c1ccc(C2CC(=O)CC(c3ccc(N(C)C)cc3)C23C(=O)NC(=O)NC3=O)cc1 (stereo not given)
> 25 µM: TGI (RPMI-8226 leukemia) | TGI (UO-31 renal) | TGI (HOP-62 NSCLC) | TGI (LOX IMVI melanoma) | TGI (PC-3 prostate) | TGI (SF-539 CNS) | TGI (OVCAR-4 ovarian) | TGI (K-562 leukemia) | TGI (NCI-H226 lung) | TGI (NCI/ADR-RES ovarian)

COc1ccc(NS(=O)CCc2ccccc2)cc1 (stereo not given)
> 100 µM: TGI (RPMI-8226 leukemia) | TGI (A549 NSCLC) | TGI (UO-31 renal) | TGI (HOP-62 NSCLC) | TGI (LOX IMVI melanoma) | TGI (SF-539 CNS) | TGI (K-562 leukemia) | TGI (NCI-H226 lung) | TGI (NCI/ADR-RES ovarian)

CCOc1ccc(NCC(=O)N2CC(=O)Nc3ccccc32)cc1
> 100 µM: TGI (RPMI-8226 leukemia) | TGI (A549 NSCLC) | TGI (UO-31 renal) | TGI (HOP-62 NSCLC) | TGI (LOX IMVI melanoma) | TGI (SF-539 CNS) | TGI (OVCAR-4 ovarian) | TGI (K-562 leukemia) | TGI (NCI-H226 lung)

CCCCOC(=O)/C(CC(=O)C=C(C)C)=N\NS(=O)(=O)c1ccc(C)cc1
> 100 µM: TGI (A498 renal) | TGI (RPMI-8226 leukemia) | TGI (A549 NSCLC) | TGI (UO-31 renal) | TGI (HOP-62 NSCLC) | TGI (LOX IMVI melanoma) | TGI (SF-539 CNS) | TGI (OVCAR-4 ovarian) | TGI (K-562 leukemia) | TGI (NCI-H226 lung)

CCN(CC)CCCCC1CCN(CC(=O)N2c3ccccc3NC(=O)c3ccccc32)CC1
> 100 µM: TGI (A498 renal) | TGI (RPMI-8226 leukemia) | TGI (A549 NSCLC) | TGI (UO-31 renal) | TGI (HOP-62 NSCLC) | TGI (SF-539 CNS) | TGI (OVCAR-4 ovarian) | TGI (K-562 leukemia) | TGI (NCI-H226 lung)

CC(=O)Nc1ccc(-c2nnc(SCC(=O)Nc3ccccc3Cl)o2)cc1
> 100 µM: TGI (A498 renal) | TGI (A549 NSCLC) | TGI (UO-31 renal) | TGI (HOP-62 NSCLC) | TGI (LOX IMVI melanoma) | TGI (SF-539 CNS) | TGI (OVCAR-4 ovarian) | TGI (K-562 leukemia) | TGI (NCI-H226 lung)

O=c1c2cc(I)ccc2nc(-c2cccs2)n1Nc1ccccc1
active: GI50 (K-562 leukemia) 0.301 µM
22.9 µM: TGI (K-562 leukemia)
68.6 µM: TGI (HOP-62 NSCLC)
> 100 µM: TGI (RPMI-8226 leukemia) | TGI (A549 NSCLC) | TGI (UO-31 renal) | TGI (LOX IMVI melanoma) | TGI (PC-3 prostate) | TGI (SF-539 CNS) | TGI (OVCAR-4 ovarian) | TGI (NCI-H226 lung) | TGI (NCI/ADR-RES ovarian)

C1CSCC2(COC2)CS1
> 100 µM: TGI (A498 renal) | TGI (A549 NSCLC) | TGI (UO-31 renal) | TGI (LOX IMVI melanoma) | TGI (PC-3 prostate) | TGI (OVCAR-4 ovarian) | TGI (K-562 leukemia) | TGI (NCI-H226 lung) | TGI (NCI/ADR-RES ovarian)

CC(=O)c1c2c(cc3c1CC1(Cc4cc5c(cc4C1)CCC5)C3)CCC2
> 100 µM: TGI (A498 renal) | TGI (RPMI-8226 leukemia) | TGI (A549 NSCLC) | TGI (UO-31 renal) | TGI (HOP-62 NSCLC) | TGI (LOX IMVI melanoma) | TGI (PC-3 prostate) | TGI (SF-539 CNS) | TGI (OVCAR-4 ovarian) | TGI (K-562 leukemia) | TGI (NCI/ADR-RES ovarian)

CC(C#N)Nc1ccc(Oc2ccc(C(C)(C)c3ccc(Oc4ccc(NC(C)C#N)cc4)cc3)cc2)cc1 (stereo not given)
> 100 µM: TGI (A498 renal) | TGI (A549 NSCLC) | TGI (UO-31 renal) | TGI (LOX IMVI melanoma) | TGI (PC-3 prostate) | TGI (SF-539 CNS) | TGI (OVCAR-4 ovarian) | TGI (K-562 leukemia) | TGI (NCI-H226 lung) | TGI (NCI/ADR-RES ovarian)

COc1ccc(/C=C2/C(=O)N(C(=O)c3ccc(Cl)cc3)N=C2C)cc1OC
> 100 µM: TGI (A498 renal) | TGI (RPMI-8226 leukemia) | TGI (A549 NSCLC) | TGI (UO-31 renal) | TGI (HOP-62 NSCLC) | TGI (LOX IMVI melanoma) | TGI (SF-539 CNS) | TGI (OVCAR-4 ovarian) | TGI (K-562 leukemia)

O=C(O)Cc1cc(=O)oc2cc(O)c(Cl)cc12
> 100 µM: TGI (A498 renal) | TGI (RPMI-8226 leukemia) | TGI (A549 NSCLC) | TGI (HOP-62 NSCLC) | TGI (LOX IMVI melanoma) | TGI (SF-539 CNS) | TGI (OVCAR-4 ovarian) | TGI (K-562 leukemia) | TGI (NCI-H226 lung)

CSc1nc(C)cc(Nc2ccc(O)c(CN3CCCCC3)c2)n1
84.3 µM: TGI (NCI-H226 lung)
71.4 µM: TGI (RPMI-8226 leukemia)
> 100 µM: TGI (A549 NSCLC) | TGI (UO-31 renal) | TGI (HOP-62 NSCLC) | TGI (LOX IMVI melanoma) | TGI (SF-539 CNS) | TGI (OVCAR-4 ovarian) | TGI (K-562 leukemia) | TGI (NCI/ADR-RES ovarian)
53.1 µM: TGI (A498 renal)

Clc1cc(Cl)cc(N2N=C(c3cccc(Nc4ccncc4)c3)CC2c2ccccc2)c1 (stereo not given)
3.2 µM: TGI (SF-539 CNS)
3.87 µM: TGI (OVCAR-4 ovarian)
5.15 µM: TGI (PC-3 prostate)
38.7 µM: TGI (NCI-H226 lung)
inactive: GI50 (A498 renal) 1.81 µM | GI50 (PC-3 prostate) 1.87 µM | GI50 (SF-539 CNS) 1.72 µM | GI50 (OVCAR-4 ovarian) 1.86 µM | GI50 (NCI-H226 lung) 14 µM
4.42 µM: TGI (A498 renal)

COc1ccc2c(OC)c3ccoc3nc2c1O
> 100 µM: TGI (A498 renal) | TGI (RPMI-8226 leukemia) | TGI (A549 NSCLC) | TGI (UO-31 renal) | TGI (HOP-62 NSCLC) | TGI (SF-539 CNS) | TGI (OVCAR-4 ovarian) | TGI (K-562 leukemia)

O=C(Nc1ccc(C(F)(F)F)cc1[N+](=O)[O-])C(=O)C(C(=O)c1ccc2ccccc2c1)C1OC(=O)c2ccccc21 (stereo not given)
24.1 µM: TGI (LOX IMVI melanoma)
19.7 µM: TGI (A498 renal)
5.03 µM: TGI (SF-539 CNS)
> 71.3 µM: TGI (A549 NSCLC)
> 50.4 µM: TGI (OVCAR-4 ovarian)
3.29 µM: TGI (NCI-H226 lung)
47.8 µM: TGI (K-562 leukemia)
28.8 µM: TGI (UO-31 renal)
> 67.3 µM: TGI (RPMI-8226 leukemia)
14.8 µM: TGI (HOP-62 NSCLC)

COc1ccc(CCN2CCC(C#N)(c3ccc(OC)c(OC)c3)CC2)cc1OC
> 100 µM: TGI (RPMI-8226 leukemia) | TGI (A549 NSCLC) | TGI (UO-31 renal) | TGI (HOP-62 NSCLC) | TGI (LOX IMVI melanoma) | TGI (SF-539 CNS) | TGI (OVCAR-4 ovarian) | TGI (K-562 leukemia) | TGI (NCI-H226 lung)

COc1cc(C2c3cccc4cccc(c34)C3CCC(=O)N32)cc(O)c1O (stereo not given)
40.3 µM: TGI (K-562 leukemia)
45 µM: TGI (OVCAR-4 ovarian)
> 50 µM: TGI (A498 renal) | TGI (A549 NSCLC) | TGI (UO-31 renal) | TGI (HOP-62 NSCLC) | TGI (PC-3 prostate) | TGI (SF-539 CNS) | TGI (NCI-H226 lung) | TGI (NCI/ADR-RES ovarian)
30.9 µM: TGI (RPMI-8226 leukemia)
